The values that follow are results of earlier work, collected in patent US7211580B2, “Compounds, compositions, and methods” (Cytokinetics, Incorporated, priority 2002, dated 2007).

The structures appear in SMILES notation.

This series concerns A549 cells. The following applies: concentration that decreases rate of cell growth by fifty percent.
As for `NC(=O)NO` [hydroxyurea], the GI50 was 500 µM. On to `O=c1[nH]cc(F)c(=O)[nH]1` [5-fluorouracil], for which the GI50 is 1 µM. `CC(=O)O[C@H]1C(=O)[C@@]2(C)[C@H]([C@H](OC(=O)c3ccccc3)[C@]3(O)C[C@H](OC(=O)[C@H](O)[C@@H](NC(=O)c4ccccc4)c4ccccc4)C(C)=C1C3(C)C)[C@]1(OC(C)=O)CO[C@@H]1C[C@@H]2O` [paclitaxel]: the GI50 was 0.004 µM.

In the case of `COc1cccc2c1C(=O)c1c(O)c3c(c(O)c1C2=O)C[C@@](O)(C(=O)CO)C[C@@H]3O[C@H]1C[C@H](N)[C@H](O)[C@H](C)O1` [doxorubicin], the GI50 was 0.063 µM.
